# Source: patent US11591323B2, “Muscarinic agonists as non-steroidal and non-opioid analgesics and methods of use thereof” (Barry University, priority 2019, dated 2023)
# “Also recorded” adds a separate entry of the source.
# Molecular target: T1, M5 muscarinic receptor (Homo sapiens, UniProt P08912)
# T1 sequence (P08912 1-532): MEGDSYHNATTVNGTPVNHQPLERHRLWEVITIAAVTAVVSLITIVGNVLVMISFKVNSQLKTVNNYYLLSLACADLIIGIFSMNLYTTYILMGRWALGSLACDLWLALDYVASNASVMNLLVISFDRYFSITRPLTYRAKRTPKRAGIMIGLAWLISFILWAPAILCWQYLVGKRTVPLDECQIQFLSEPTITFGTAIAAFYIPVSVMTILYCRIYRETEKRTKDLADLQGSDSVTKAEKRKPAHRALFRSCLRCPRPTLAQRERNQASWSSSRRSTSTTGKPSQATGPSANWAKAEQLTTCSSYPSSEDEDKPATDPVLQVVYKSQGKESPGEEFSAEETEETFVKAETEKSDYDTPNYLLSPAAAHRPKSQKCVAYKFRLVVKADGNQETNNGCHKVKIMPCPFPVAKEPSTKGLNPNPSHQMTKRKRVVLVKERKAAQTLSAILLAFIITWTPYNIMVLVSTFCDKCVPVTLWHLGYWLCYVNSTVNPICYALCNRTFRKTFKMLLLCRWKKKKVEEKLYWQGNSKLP
# Assay: stimulation of cAMP, M5 CHO cells (M5Gs)
# Type: cell-based
# Set-up: host or cells: CHO cells, stably transfected
# Conditions: for RAi / E′MAX / τ / Δlog(τ/KA): M5Gs (↑cAMP); for RAi: Table 8, relative to carbachol; for E′MAX / τ: Table 8; for Δlog(τ/KA): Table 8, to carbachol
# Method: To determine level of cAMP, cells in suspension were pre-incubated for 1 h with 0.4 μM [^3H]adenine, washed, and incubated for 10 min in the presence of isobutylmethylxanthine and 10 μM forskolin. […] Incubation was ended by addition of 0.2 ml of 2.5 M HCl to the samples. Samples were applied to alumina columns (1.5 g of alumina per column), washed with 2 ml ammonium acetate (pH=7.0) and eluted from columns with 4 ml ammonium acetate and measured by liquid scintillation spectrometry. […] The incubation was stopped by addition of 0.5 ml of chloroform methanol HCl mixture (2:1:0.1). After separation of water and organic phases, 0.6 ml of water phase was applied to Dowex columns (1.5 g of Dowex per column), washed by 20 ml of 60 mM ammonium formate/5 mM sodium borate buffer and eluted from columns with 4 ml of 1M ammonium formate/0.1 formic acid buffer and measured by liquid scintillation spectrometry.
# Measurements of the production of cAMP and inositol phosphates: Levels of second messengers cAMP and inositol phosphates were determined in radiochemical chromatography assays as described previously. To determine level of cAMP, cells in suspension were pre-incubated for 1 h with 0.4 μM [^3H]adenine, washed, and incubated for 10 min in the presence of isobutylmethylxanthine and 10 μM forskolin. […] Incubation was ended by addition of 0.2 ml of 2.5 M HCl to the samples. Samples were applied to alumina columns (1.5 g of alumina per column), washed with 2 ml ammonium acetate (pH=7.0) and eluted from columns with 4 ml ammonium acetate and measured by liquid scintillation spectrometry. […] For this purpose, new CHO cell lines stably expressing promiscuous G15 G-protein and M2 or M4 receptor were generated by transfection with pCMV/hygro vector and hygromycin selection. To determine the rate of formation of inositol phosphates IPX, suspended cells were pre-incubated with 0.1 μM [^3H]myo-inositol for 60 min, washed, and incubated with 10 mM LiCl for 15 min. […] The incubation was stopped by addition of 0.5 ml of chloroform methanol HCl mixture (2:1:0.1). After separation of water and organic phases, 0.6 ml of water phase was applied to Dowex columns (1.5 g of Dowex per column), washed by 20 ml of 60 mM ammonium formate/5 mM sodium borate buffer and eluted from columns with 4 ml of 1M ammonium formate/0.1 formic acid buffer and measured by liquid scintillation spectrometry.
# For bi-phasic response, curves were inhibitory and stimulatory phase were fitted separately. Operational Model of Functional Agonism
# [formula] where y is functional response at concentration of tested compound x, EMAX is maximal response of the system, KA is equilibrium dissociation constant and nH is slope factor. Eq. 5 was fitted to data from functional experiments. Eq. 5 was fitted to data by the two-step procedure described earlier. […] In the second step, Eq. 5 with EMAX fixed to the value determined in the first step was fitted to individual experimental data sets. Relative Intrinsic Activity
# Muscarinic receptors are also able to stimulate non-preferential signalling pathways.
SMILES,RAi,EC50,Kd,E′MAX,τ,Δlog(τ/KA),"increase of cAMP level (M5, micromolar concentrations, in words)"
"C[N+]1(Cc2cccs2)CC=CCC1.[I-] (stereo not drawn) [Compound 7A, 1-methyl-1-[(thiophen-2-yl)methyl]-1,2,3,6-tetrahydropyridin-1-ium iodide]",0,–,–,–,–,–,–
"O=C1CCCN1CC#CCN1CCCC1 [oxotremorine, reference compound]",6.62 ± 0.58,3.8 µM,3.98 µM,1.22 ± 0.03 fold increase,0.09 ± 0.02,−0.82 ± 0.08,–
"C1=CCN(Cc2cccs2)CC1.Cl [Compound 6A, 1-[(thiophen-2-yl)methyl]-1,2,3,6-tetrahydropyridin-1-ium chloride]",0,–,–,–,–,–,–
"C[N+](C)(C)CCOC(N)=O [carbachol, reference compound]",–,–,–,1.23 ± 0.03 fold increase,0.10 ± 0.02,0,at micromolar concentrations it stimulated cAMP production; also recorded: increased cAMP level at micromolar concentrations
